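These data come from cells grown in 96-well plates and exposed to compound for 48 hours at five concentrations. Abbreviation: GI50, concentration required for 50% inhibition of growth.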 Active and inactive are the calls of the source. Rule as the data show it: active = GI50 up to about 1.1 µM and inactive = higher.
Legend:
Test in all cases: NCI anticancer screen, dose series, 48 h
[1] = tested on: OVCAR-5
[2] = tested on: SNB-19
[3] = tested on: NCI-H226
[4] = tested on: SW-620
[5] = tested on: UACC-62
[6] = tested on: SF-295
[7] = tested on: SNB-75
[8] = tested on: EKVX
[9] = tested on: IGROV-1
[10] = tested on: SK-OV-3
[11] = tested on: MDA-MB-231
[12] = tested on: M14
[13] = tested on: SF-539
[14] = tested on: NCI/ADR-RES
[15] = tested on: NCI-H522
[16] = tested on: KM12
[17] = tested on: SR
[18] = tested on: MOLT-4
[19] = tested on: HCC 2998

| SMILES | GI50 [1] | GI50 [2] | GI50 [3] | GI50 [4] | GI50 [5] | GI50 [6] | GI50 [7] | GI50 [8] | GI50 [9] | GI50 [10] | GI50 [11] | GI50 [12] | GI50 [13] | GI50 [14] | GI50 [15] | GI50 [16] | GI50 [17] | GI50 [18] | GI50 [19] |
| --- | --- | --- | --- | --- | --- | --- | --- | --- | --- | --- | --- | --- | --- | --- | --- | --- | --- | --- | --- |
| CCN(CC)C(=S)N/N=C1\C(=O)Nc2ccccc21 | 6.18 µM (inactive) | 1.69 µM (inactive) | 0.59 µM (active) | 0.493 µM (active) | 1.31 µM (inactive) | 0.45 µM (active) | 1.31 µM (inactive) | 1.36 µM (inactive) | 0.239 µM (active) | 3.05 µM (inactive) | 1.14 µM (inactive) | 0.586 µM (active) | 0.468 µM (active) | 0.152 µM (active) | 3.03 µM (inactive) | 0.451 µM (active) | 0.968 µM (active) | 0.653 µM (active) |  |
| CN(C)Cc1cc(C(C)(C)C)cc(C2CCCCC2)c1O | 17 µM (inactive) | 13 µM (inactive) | 15.7 µM (inactive) | 16.6 µM (inactive) | 16.1 µM (inactive) |  | 10.3 µM (inactive) | 11.9 µM (inactive) | 18.8 µM (inactive) | 15 µM (inactive) | 13.8 µM (inactive) | 24.6 µM (inactive) | 10.9 µM (inactive) | 19.6 µM (inactive) | 20.2 µM (inactive) | 13.6 µM (inactive) | 12.3 µM (inactive) | 10.8 µM (inactive) |  |
| COC(=O)C1=NN2c3ccccc3C(=O)OCCC2C1 (centres undefined) | > 100 µM (inactive) |  | > 100 µM (inactive) | > 100 µM (inactive) | > 100 µM (inactive) | > 100 µM (inactive) | > 100 µM (inactive) | > 100 µM (inactive) | 71.9 µM (inactive) | > 100 µM (inactive) | > 100 µM (inactive) |  | > 100 µM (inactive) | > 100 µM (inactive) | > 100 µM (inactive) | > 100 µM (inactive) | > 100 µM (inactive) | > 100 µM (inactive) | > 100 µM (inactive) |
| CN1c2ccccc2C2=C(c3ccccc3)CC[C@@H](C(=O)N3C4CC5CC[C@@]4(CS3(=O)=O)C5(C)C)[C@@H]21 (some centres undefined) | > 100 µM (inactive) | > 100 µM (inactive) | > 100 µM (inactive) | > 100 µM (inactive) | > 100 µM (inactive) | > 100 µM (inactive) | > 100 µM (inactive) | > 100 µM (inactive) | > 100 µM (inactive) | > 100 µM (inactive) | > 100 µM (inactive) | > 100 µM (inactive) | > 100 µM (inactive) | > 100 µM (inactive) | 92.3 µM (inactive) | > 100 µM (inactive) | > 100 µM (inactive) | 4.58 µM (inactive) |  |
| COc1ccc(-c2cn3c(nc4ccccc43)c(/C=C/c3cccs3)n2)cc1 | > 100 µM (inactive) | 92.3 µM (inactive) | > 100 µM (inactive) | 41.1 µM (inactive) | 68.2 µM (inactive) |  | 52.6 µM (inactive) |  |  | 75.2 µM (inactive) | > 100 µM (inactive) | 37.8 µM (inactive) | 89.7 µM (inactive) | 13 µM (inactive) |  | 11.9 µM (inactive) | 2.65 µM (inactive) |  | 49.5 µM (inactive) |
| N=c1oc2cc(O)ccc2cc1C(=O)Nc1cccc2ccccc12 | 13.5 µM (inactive) | 4.68 µM (inactive) | 5.92 µM (inactive) | 3.4 µM (inactive) | 3.23 µM (inactive) | 5.18 µM (inactive) | 3.54 µM (inactive) | 4.32 µM (inactive) | 3.27 µM (inactive) | 6.65 µM (inactive) | 3.06 µM (inactive) | 7 µM (inactive) |  | 1.82 µM (inactive) | 1.65 µM (inactive) | 3.75 µM (inactive) | 1.67 µM (inactive) | 2.7 µM (inactive) | 3.71 µM (inactive) |
| O=[N+]([O-])C(=C(N1CCOCC1)N1CCOCC1)/C(Cl)=C(\Cl)Br | 17.1 µM (inactive) | > 100 µM (inactive) | 27.6 µM (inactive) | 15.5 µM (inactive) |  | > 100 µM (inactive) | 17.5 µM (inactive) | 17.1 µM (inactive) |  |  | 17.9 µM (inactive) | 13.4 µM (inactive) | 24.3 µM (inactive) | 22.2 µM (inactive) | 2.41 µM (inactive) | 31.4 µM (inactive) | 17.2 µM (inactive) | 15.3 µM (inactive) | > 100 µM (inactive) |
| O=C(O)c1nc2ccc(Cl)cc2[nH]c1=O | > 100 µM (inactive) | > 100 µM (inactive) | > 100 µM (inactive) | > 100 µM (inactive) | > 100 µM (inactive) | > 100 µM (inactive) |  | > 100 µM (inactive) | > 100 µM (inactive) | > 100 µM (inactive) | > 100 µM (inactive) | > 100 µM (inactive) | > 100 µM (inactive) | > 100 µM (inactive) | > 100 µM (inactive) | > 100 µM (inactive) | > 100 µM (inactive) | > 100 µM (inactive) | > 100 µM (inactive) |
| OC1(c2ccccc2)C2CC=CC2C1(c1ccccc1)c1ccccc1 (centres undefined) | 60.8 µM (inactive) | 51.3 µM (inactive) |  | 30.2 µM (inactive) | 23.9 µM (inactive) | 34 µM (inactive) | 34.1 µM (inactive) | 20.5 µM (inactive) | 20.1 µM (inactive) | 38.9 µM (inactive) | 40.6 µM (inactive) | 32.7 µM (inactive) | 77.1 µM (inactive) | 44.3 µM (inactive) | 13.5 µM (inactive) | 20.6 µM (inactive) | 19.2 µM (inactive) | 16.1 µM (inactive) | 19.8 µM (inactive) |
| NC1CC(Cl)c2c(Cl)sc(Cl)c21 (centres undefined) | > 100 µM (inactive) |  | > 100 µM (inactive) | > 100 µM (inactive) | > 100 µM (inactive) | > 100 µM (inactive) | > 100 µM (inactive) | > 100 µM (inactive) | > 100 µM (inactive) | > 100 µM (inactive) | > 100 µM (inactive) | > 100 µM (inactive) | > 100 µM (inactive) | > 100 µM (inactive) | < 0.01 µM (active) | > 100 µM (inactive) | 61.8 µM (inactive) | > 100 µM (inactive) | 53.2 µM (inactive) |
| COc1ccc(C2CC(C)(O)Oc3cc4c(cc32)OCO4)cc1 (centres undefined) | 55.7 µM (inactive) | 38.4 µM (inactive) | 53.7 µM (inactive) | 36 µM (inactive) | 36.9 µM (inactive) | 30.8 µM (inactive) | 29.7 µM (inactive) | 40.2 µM (inactive) | 29.5 µM (inactive) |  | 32.6 µM (inactive) | 36 µM (inactive) | 38.9 µM (inactive) | 23.3 µM (inactive) | 11.2 µM (inactive) | 27.3 µM (inactive) | 24.2 µM (inactive) | 22.1 µM (inactive) | 47.6 µM (inactive) |
| c1ccc(CN2CCC3(CC2)SSC2(CCN(Cc4ccccc4)CC2)S3)cc1 | 85.3 µM (inactive) |  |  | > 100 µM (inactive) | 82.8 µM (inactive) | 26.5 µM (inactive) | > 100 µM (inactive) |  | > 100 µM (inactive) | > 100 µM (inactive) | > 100 µM (inactive) | 66.5 µM (inactive) | > 100 µM (inactive) | > 100 µM (inactive) |  | 45.3 µM (inactive) | 28.8 µM (inactive) | > 100 µM (inactive) | 26.9 µM (inactive) |
| Nc1ncc2c(n1)-c1ccccc1OC2N1CCCCC1 (centres undefined) | > 100 µM (inactive) | > 100 µM (inactive) | > 100 µM (inactive) | > 100 µM (inactive) | > 100 µM (inactive) | > 100 µM (inactive) | > 100 µM (inactive) | 95.1 µM (inactive) | > 100 µM (inactive) | > 100 µM (inactive) | > 100 µM (inactive) | > 100 µM (inactive) | > 100 µM (inactive) | > 100 µM (inactive) | > 100 µM (inactive) | > 100 µM (inactive) | > 100 µM (inactive) | > 100 µM (inactive) |  |
| N#CC1C(=S)NC(c2ccccc2)=CC12CCCCC2 (centres undefined) | 37.5 µM (inactive) | 32.5 µM (inactive) | 26.7 µM (inactive) | 38.8 µM (inactive) | 20 µM (inactive) |  | 58.7 µM (inactive) | 17.8 µM (inactive) | 23.4 µM (inactive) |  | 38.9 µM (inactive) | 26.1 µM (inactive) | 43 µM (inactive) | 28.8 µM (inactive) | 22.1 µM (inactive) | 22.9 µM (inactive) | 21.1 µM (inactive) | 20.7 µM (inactive) | > 100 µM (inactive) |
| O=C(/C=C/c1ccc(C(F)(F)F)cc1)c1c([O-])on[n+]1-c1ccccc1 | 3.12 µM (inactive) | 3.12 µM (inactive) | 6 µM (inactive) | 1.37 µM (inactive) | 1.47 µM (inactive) | 3.6 µM (inactive) | 2.07 µM (inactive) | 2.24 µM (inactive) | 1.86 µM (inactive) | 14.3 µM (inactive) | 4.53 µM (inactive) | 2.3 µM (inactive) | 2.03 µM (inactive) | 1.78 µM (inactive) |  | 1.83 µM (inactive) | 0.196 µM (active) | 0.284 µM (active) | 1.98 µM (inactive) |
| NS(=O)(=O)c1nnc(NS(=O)(=O)c2cccc3cccnc23)s1 | > 100 µM (inactive) | > 100 µM (inactive) | > 100 µM (inactive) | > 100 µM (inactive) | > 100 µM (inactive) | > 100 µM (inactive) |  | > 100 µM (inactive) |  | > 100 µM (inactive) | > 100 µM (inactive) | > 100 µM (inactive) | > 100 µM (inactive) | > 100 µM (inactive) |  | > 100 µM (inactive) | 41.9 µM (inactive) | > 100 µM (inactive) | > 100 µM (inactive) |
